From US7452887B2, “Quinoline- and isoquinoline-based compounds exhibiting ATP-utilizing enzyme inhibitory activity, and compositions, and uses thereof” (Amphora Discovery Corporation, priority 2004, dated 2008)

The compounds below were run against MAPKAPK2 (Homo sapiens, UniProt P49137) (assay: HTS ATP-utilizing enzyme assay, off-chip mobility-shift (Caliper HTS 250)). Settings: test compound 10 μM, kinase listed = active (greater than six-sigma from the mean activity of inactive compounds).
Format: biochemical
Source text: The following procedures describe the reagent and plate preparation for a HTS of an ATP-utilizing enzyme, such as a protein kinase, run in an off-chip mobility-shift assay format. The following provides an HTS protocol for running a protein kinase HTS screen on a Caliper HTS 250 microfluidics system. The following parameters are dependent on the protein kinase used and can be determined by one skilled in the art as part of a typical assay development process. For example, the peptide substrate used can be identified from the current literature, by screening a peptide library of potential protein kinase substrates, or by other applicable means accepted in the field.
The following table provides typical screen assay parameters appropriate for a Caliper HTS 250 microfluidics system.
The reagents and buffers listed in the following table are generally applicable for developing and running an HTS screen on a human protein kinase using the Caliper HTS 250 system.
The following reagents were prepared using the previously described buffers.
A 2× Master Buffer solution was prepared by combining 200 mL of 1 M HEPES, pH 7.5, 2 mL of 10% Triton X-100, 20 mL of 10% BSA, and 778 mL of H2O.
A TCB Buffer solution was prepared by combining 125 mL of 2× Master Buffer, 10 mL of 0.5 M EDTA, 6.25 mL of 4% coating reagent, 1.01 mL of 100% DMSO, and 107.74 mL H2O.
Assays to determine the kinase inhibitory activity of compounds of the present disclosure were performed using a Caliper HTS 250 microfluidics device, Greiner U-bottom assay plates, a Multidrop for transfer of reagents, and Biomek FX (AMNCBM03) software. Initially, 2.4 μL of a 1 mM solution of a test compound in 100% DMSO was added to a well of the Greiner U-bottom plate. A single Greiner U-bottom plate having 24×16 wells could include multiple test compounds. […] Using the Biomek FX, 10 μL of 0.5 M EDTA was added by the span-8 to wells, indicated as 100% Control and 2.4 μL of 100% DMSO was added by the span-8 to wells, indicated as 0% Control. […] The total reaction volume in each well was 25 μL, and the concentration of the test compound was 10 μM. The assay plate was incubated for 2.5 hrs at 20° C. to 22° C. […] The inhibition of the ATP-utilizing enzyme, such as a particular protein kinase, was determined by measuring the ratio of the peptide substrate to phosphorylated product for each well of the assay plate using the Caliper HTS 250 system.
The use of six-sigma statistical limits represents a conservative method for declaring potential hits among targets. The six-sigma activity, as well as the mean population activity, can be different for each target enzyme.

MAPKAPK2, sequence (P49137 whole entry): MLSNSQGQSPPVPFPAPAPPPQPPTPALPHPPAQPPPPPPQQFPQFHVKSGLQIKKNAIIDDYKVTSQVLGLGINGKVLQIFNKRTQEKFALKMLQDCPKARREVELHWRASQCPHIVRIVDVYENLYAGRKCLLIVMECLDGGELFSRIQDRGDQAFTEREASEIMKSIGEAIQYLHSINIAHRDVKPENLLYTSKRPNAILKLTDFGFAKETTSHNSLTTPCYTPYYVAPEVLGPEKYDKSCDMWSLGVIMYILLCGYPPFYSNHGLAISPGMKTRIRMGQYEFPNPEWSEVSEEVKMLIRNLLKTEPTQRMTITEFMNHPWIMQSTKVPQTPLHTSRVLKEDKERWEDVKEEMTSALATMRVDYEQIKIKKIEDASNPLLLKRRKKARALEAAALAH

Compound | Activity
N#Cc1ccc(-c2ccc3nccc(Nc4ccc(N5CCN(C6CCCC6)CC5)cc4)c3c2)cc1 [4-(4-(4-(4-cyclopentylpiperazin-1-yl)phenylamino)quinolin-6-yl)benzonitrile] | MAPKAPK2
CN(C)C1CCCN(c2ccc(Nc3ccnc4ccc(-c5ccc(C#N)cc5)cc34)cc2)C1 (centres unmarked) [4-(4-(4-(3-(dimethylamino)piperidin-1-yl)phenylamino)quinolin-6-yl)benzonitrile] | MAPKAPK2
COc1cc(-c2ccc3nccc(Nc4ccc(N5CCC(N(C)C)C5)cc4)c3c2)ccc1Cl (centres unmarked) [6-(4-chloro-3-methoxyphenyl)-N-(4-(3-(dimethylamino)pyrrolidin-1-yl)phenyl)quinolin-4-amine] | MAPKAPK2
Cc1ccc(-c2ccc3nccc(Nc4ccc(N(C)C5CCN(C)C5)cc4)c3c2)nc1 (centres unmarked) [N1-methyl-N4-(6-(5-methylpyridin-2-yl)quinolin-4-yl)-N1-(1-methylpyrrolidin-3-yl)benzene-1,4-diamine] | MAPKAPK2
Cc1cc(-c2ccc3nccc(Nc4ccc(N5CCC(N(C)C)C5)cc4)c3c2)ccc1Cl (centres unmarked) [6-(4-chloro-3-methylphenyl)-N-(4-(3-(dimethylamino)pyrrolidin-1-yl)phenyl)quinolin-4-amine] | MAPKAPK2
CN(C)[C@@H]1CCN(c2ccc(Nc3ccnc4ccc(-c5ccc(C#N)cc5)cc34)cc2)C1 [(R)-4-(4-(4-(3-(dimethylamino)pyrrolidin-1-yl)phenylamino)quinolin-6-yl)benzonitrile] | MAPKAPK2
CN(C)CC1CCCN(c2ccc(Nc3ccnc4ccc(-c5ccc(C#N)cc5)cc34)cc2)C1 (centres unmarked) [4-(4-(4-(3-((dimethylamino)methyl)piperidin-1-yl)phenylamino)quinolin-6-yl)benzonitrile] | MAPKAPK2
CN(CCC(F)(F)F)C1CCN(c2ccc(Nc3ccnc4ccc(-c5ccc(C#N)cc5)cc34)cc2)C1 (centres unmarked) [4-(4-(4-(3-(methyl(3,3,3-trifluoropropyl)amino)pyrrolidin-1-yl)phenylamino)quinolin-6-yl)benzonitrile] | MAPKAPK2
CN1CCN(c2ccc(Oc3ccnc4ccc(-c5ccc(Cl)cc5)cc34)cc2)CC1 [6-(4-chlorophenyl)-4-(4-(4-methylpiperazin-1-yl)phenoxy)quinoline] | MAPKAPK2
N#Cc1ccc(-c2ccc3nccc(Nc4ccc(N5CCN(C6CCCCC6)CC5)cc4)c3c2)cc1 [4-(4-(4-(4-cyclohexylpiperazin-1-yl)phenylamino)quinolin-6-yl)benzonitrile] | MAPKAPK2
CN1CCN(c2ccc(Nc3ccnc4ccc(-c5ccc(CCC(=O)O)cc5)cc34)cc2)CC1 [3-(4-(4-(4-(4-methylpiperazin-1-yl)phenylamino)quinolin-6-yl)phenyl)propanoic acid] | MAPKAPK2
N#Cc1ccc(-c2ccc3nccc(Nc4ccc(N5CCN(CCO)CC5)cc4)c3c2)cc1 [4-(4-(4-(4-(2-hydroxyethyl)piperazin-1-yl)phenylamino)quinolin-6-yl)benzonitrile] | MAPKAPK2
N#Cc1ccc(-c2ccc3nccc(Nc4ccc(N5CCN(CCCO)CC5)cc4)c3c2)cc1 [4-(4-(4-(4-(3-hydroxypropyl)piperazin-1-yl)phenylamino)quinolin-6-yl)benzonitrile] | MAPKAPK2
CN(C)C(=O)CN1CCN(c2ccc(Nc3ccnc4ccc(-c5ccc(C#N)cc5)cc34)cc2)CC1 [2-(4-(4-(6-(4-cyanophenyl)quinolin-4-ylamino)phenyl)piperazin-1-yl)-N,N-dimethylacetamide] | MAPKAPK2
CN(C)C1CCN(c2ccc(Nc3ccnc4ccc(-c5ccc6c(c5)OCO6)cc34)cc2)C1 (centres unmarked) [6-(benzo[d][1,3]dioxol-5-yl)-N-(4-(3-(dimethylamino)pyrrolidin-1-yl)phenyl)quinolin-4-amine] | MAPKAPK2
COc1ccc(-c2ccc3nccc(Nc4ccc(N5CCN(CC(=O)N(C)C)CC5)cc4)c3c2)cc1 [2-(4-(4-(6-(4-methoxyphenyl)quinolin-4-ylamino)phenyl)piperazin-1-yl)-N,N-dimethylacetamide] | MAPKAPK2
CN(C)CC1CCN(c2ccc(Nc3ccnc4ccc(-c5ccc(C#N)cc5)cc34)cc2)CC1 [4-(4-(4-(4-((dimethylamino)methyl)piperidin-1-yl)phenylamino)quinolin-6-yl)benzonitrile] | MAPKAPK2
Cc1cc(-c2ccc3nccc(Nc4ccc(N5CCC(N(C)C)C5)cc4)c3c2)ccc1C#N (centres unmarked) [4-(4-(4-(3-(dimethylamino)pyrrolidin-1-yl)phenylamino)quinolin-6-yl)-2-methylbenzonitrile] | MAPKAPK2
CN1CCN(c2ccc(Nc3ccnc4ccc(-c5ccc(Cl)cc5)cc34)cn2)CC1 [6-(4-chlorophenyl)-N-(6-(4-methylpiperazin-1-yl)pyridin-3-yl)quinolin-4-amine] | MAPKAPK2
CN1CCN(c2ccc(Oc3ccnc4ccc(-c5ccc(C#N)cc5)cc34)cc2)CC1 [4-(4-(4-(4-methylpiperazin-1-yl)phenoxy)quinolin-6-yl)benzonitrile] | MAPKAPK2
CCN(CC)C1CCN(c2ccc(Nc3ccnc4ccc(-c5ccc(Cl)cc5)cc34)cc2)C1 (centres unmarked) [6-(4-chlorophenyl)-N-(4-(3-(diethylamino)pyrrolidin-1-yl)phenyl)quinolin-4-amine] | MAPKAPK2
CCN(CC)c1ccc(-c2ccc3nccc(Nc4ccc(N5CCC(N(C)C)C5)cc4)c3c2)cc1 (centres unmarked) [6-(4-(diethylamino)phenyl)-N-(4-(3-(dimethylamino)pyrrolidin-1-yl)phenyl)quinolin-4-amine] | MAPKAPK2
CN(C)C1CCN(c2ccc(Nc3ccnc4ccc(-c5ccc6c(c5)CCC6=O)cc34)cc2)C1 (centres unmarked) [5-(4-(4-(3-(dimethylamino)pyrrolidin-1-yl)phenylamino)quinolin-6-yl)-2,3-dihydroinden-1-one] | MAPKAPK2
COc1ccc(-c2ccc3nccc(Nc4ccc(N5CCN(CCO)CC5)cc4)c3c2)cc1 [2-(4-(4-(6-(4-methoxyphenyl)quinolin-4-ylamino)phenyl)piperazin-1-yl)ethanol] | MAPKAPK2

Other lines, results leading:

Activity | Compound
MAPKAPK2 | CCCCN1CCN(c2ccc(Nc3ccnc4ccc(-c5ccccc5)cc34)cc2)CC1 [N-(4-(4-butylpiperazin-1-yl)phenyl)-6-phenylquinolin-4-amine]
MAPKAPK2 | CCC(C)N1CCN(c2ccc(Nc3ccnc4ccc(-c5ccc(OC)cc5)cc34)cc2)CC1 (centres unmarked) [N-(4-(4-sec-butylpiperazin-1-yl)phenyl)-6-(4-methoxyphenyl)quinolin-4-amine]
MAPKAPK2 | Cc1ccc(-c2ccc3nccc(Nc4ccc(N5CCC(N(C)C)C5)cc4)c3c2)cc1 (centres unmarked) [N-(4-(3-(dimethylamino)pyrrolidin-1-yl)phenyl)-6-p-tolylquinolin-4-amine]
MAPKAPK2 | CCCN(c1ccc(N2CCN(C)CC2)cc1)c1ccnc2ccc(-c3ccccc3)cc12 [N-(4-(4-methylpiperazin-1-yl)phenyl)-6-phenyl-N-propylquinolin-4-amine]
MAPKAPK2 | COc1ccc(-c2ccc3nccc(Nc4ccc(N5CCN(C6CCCC6)CC5)cc4)c3c2)cc1 [N-(4-(4-cyclopentylpiperazin-1-yl)phenyl)-6-(4-methoxyphenyl)quinolin-4-amine]
MAPKAPK2 | c1ccc(-c2ccc3nccc(Nc4ccc(N5CCN(C6CCCC6)CC5)cc4)c3c2)cc1 [N-(4-(4-cyclopentylpiperazin-1-yl)phenyl)-6-phenylquinolin-4-amine]
MAPKAPK2 | CCN(CC)C1CCN(c2ccc(Nc3ccnc4ccc(-c5ccc6ccccc6c5)cc34)cc2)C1 (centres unmarked) [N-(4-(3-(diethylamino)pyrrolidin-1-yl)phenyl)-6-(naphthalen-2-yl)quinolin-4-amine]
MAPKAPK2 | CCN1CCN(c2ccc(Nc3ccnc4ccc(-c5ccc(OC)cc5)cc34)cc2)CC1 [N-(4-(4-ethylpiperazin-1-yl)phenyl)-6-(4-methoxyphenyl)quinolin-4-amine]
MAPKAPK2 | CN(C)C1CCN(c2ccc(Nc3ccnc4ccc(-c5ccc6ccccc6c5)cc34)cc2)C1 (centres unmarked) [N-(4-(3-(dimethylamino)pyrrolidin-1-yl)phenyl)-6-(naphthalen-2-yl)quinolin-4-amine]
MAPKAPK2 | CCC(C)N1CCN(c2ccc(Nc3ccnc4ccc(-c5ccccc5)cc34)cc2)CC1 (centres unmarked) [N-(4-(4-sec-butylpiperazin-1-yl)phenyl)-6-phenylquinolin-4-amine]
MAPKAPK2 | Cc1ccc(-c2ccc3nccc(Nc4ccc(N5CCC(N(C)C)C5)cc4)c3c2)cc1F (centres unmarked) [N-(4-(3-(dimethylamino)pyrrolidin-1-yl)phenyl)-6-(3-fluoro-4-methylphenyl)quinolin-4-amine]
